Experimental data reported in PMC11945201, “Enhancing the Oral Bioavailability of Glutathione Using Innovative Analogue Approaches” (Pharmaceutics, 2025).

Tests used:
[1] = test system: glutathione reductase (GR) and glutathione peroxidase (GPx); assay: Glutathione reductase and glutathione peroxidase coupled assay (NADPH, 340 nm); format: biochemical, yeast (GR), bovine (GPx); conditions: for GT/GPx Activity > 50%: yes/no, more than 50% considered retaining GR and GPx activity; for activity with GPx and GR enzymes (in words): qualitative analysis
Procedure: The activity of GR can be measured by monitoring the rate of decrease in absorbance of its substrate, NADPH, which absorbs light of 340 nm in the presence of a second substrate, i.e., oxidised GSH. […] In the presence of peroxides, reduced GSH can be oxidised by the enzyme GPx while reducing the peroxide. […] The NADPH solution (10 μL, 5 mmolL^−1), GPx enzyme solution (10 μL, 0.25 UmL^−1), and GR enzyme solution (10 μL, 10 UmL^−1) were also added to the reaction mixture. The reaction was initiated by the addition of tBu-OOH (2 μL, 30 mmolL^−1), and the decrease in absorbance at 340 nm was recorded by a microplate reader every 10 secs for one minute. […] A GR and GPx activity more than 50% was considered as retaining GR and GPx activity.

[2] = test system: glutathione S-transferase (GST); assay: Glutathione S-transferase assay (CDNB conjugation, absorbance 340 nm); format: biochemical, equine; conditions: for GST Activity > 50%: yes/no, compared to GSH, more than 50% considered retaining GST activity; for activity/efficacy with GST enzyme (in words): qualitative analysis
Procedure: The degree of conjugation of GSH or novel compounds to a substrate catalysed by GST can be monitored […] by conjugation with the substrate 1-chloro-2,4-dinotrobenzene (CDNB) to a thiol group. Successful conjugation results in the formation of a S-DNB conjugate, which strongly absorbs at 340 nm.
A stock solution of GSH and novel compounds (0.0315 mmolL^−1) were prepared. GSH or novel compounds (26 µL) were added to a mixture of pH = 7.4 DPBS (170 µL), CDNB (2 µL, 100 mmolL^−1), and GST enzyme (2 µL, 25 UmL^−1) to initiate the reaction. The rate of increase in absorbance at 340 nm was monitored every minute over a 10 min period. The rate of increase in absorbance at 340 nm was calculated by the following equation (Equation (1)), where ΔA340 is the change in absorption at 340 nm per minute:(1) ΔA340=A340(final)–A340(initial)/t.
The rate of increase in absorption at 340 nm was correlated to the specific activity of GST using the following equation (Equation (2)):(2) ΔA340×V/εmM ×Venz=Specific activity of GST, where the extinction coefficient εmM for a 96-well plate of a path length of 0.5 cm is 5.3 mmolL^−1cm^−1; Venz is the volume of the GST enzyme sample used (2 µL); and V is the total volume used ([…]). […] A GST activity more than 50% was considered as retaining GST activity.

[3] = test system: Caco-2, Fibroblast, and HT29-MTX-E12 cells; assay: Cytotoxicity by MTT cell viability; format: cell-based; conditions: 24 h incubation, cell line not split in table (Caco-2, Fibroblast, HT29-MTX-E12), highest usable concentration 3.25 mmolL^−1
Procedure: All cell culture studies were conducted in aseptic conditions. Incubation was maintained at an atmosphere of 37.0 °C, 5% CO2, and 95% relative humidity. The caco-2 cells were grown in complete Dulbecco’s modified Eagle’s medium (DMEM), which was prepared by adding 10% foetal bovine serum (FBS), 1% penicillin-streptomycin (P-S), and 1% non-essential amino acids (NEAA) to sterile DMEM. Cells were cultured in T-25 and T-75 tissue culture flasks, and the medium was exchanged every 3 days until 90% confluence was reached. Cells were detached and subcultured with 0.25% Trypsin-EDTA. The suspended cell concentration was determined by cell counting.
Cytotoxicity was measured by measuring cell viability using MTT. Then, 90% confluent cells were detached by 0.25% trypsin-EDTA, which were then counted and seeded into sterile 96-well plates. Caco-2 cells were seeded into 96-well plates at a density of 100,000 cells per well and incubated for 24 h prior to the experiment. Fibroblast cells were seeded into 96-well plates at a density of 10,000 cells per well and incubated for 24 h prior to the experiment. HT-29 cells were seeded into 96-well plates at a density of 10,000 cells per well and incubated for 24 h prior to the experiment. The supernatant in each well were discarded and the attached cells were washed using serum-free Fluorobite^TM DMEM twice to remove any phenol red. The peptide, at concentrations of 10 mgmL^−1, 1 mgmL^−1, 0.1 mgmL^−1, 0.01 mgmL^−1, 0.001 mgmL^−1, and 0.0001 mgmL^−1 were dissolved in serum-free Fluorobite^TM DMEM. The total volume of sample in each well used was 100 μL. The cells were incubated with the peptide for 24 h. Cells were also incubated with serum-free DMEM (positive control) and 2% Triton-X (negative control) for 24 h. The supernatant in each well was then discarded and washed using serum-free Fluorobite^TM DMEM. MTT (100 μL, 1.2 mmolL^−1) dissolved in Fluorobite^TM DMEM was then added to each well and incubated for 2 h for MTT conversion into formazan. The supernatant was then discarded, and the cells were washed using Fluorobite^TM DMEM to remove any residual MTT and formazan that were not attached to cellular mitochondria. Formazan was dissolved in dimethyl sulfoxide (DMSO) (50 μL), and the absorbance was measured on a microplate reader at a wavelength of 570 nm. Cell viability was expressed as a percentage of the positive control and calculated as follows (where Aexp is the absorbance at 570 nm of the experimental group, Aneg is the absorbance at 570 nm of the negative control, and Acon is the cell viability of the positive control): Cell viability = (Aexp − Aneg)/(Acon − Aneg).

[4] = test system: γ-glutamyl transferase (GGT); format: in vitro ADME, equine; conditions: for % Degradation by GGT: horse, 100 μgmL^−1, pH 9
Procedure: Each compound and GSH (100 μgmL^−1, 0.0315 molL^−1) was added to each reaction vessel containing phosphate buffer solution (800 μL, pH 9.0). The reaction vessels were incubated at 37 °C with shaking for the entire duration of the experiment. Reaction was initiated by the addition of GGT enzyme solution (100 μL, 10 UmL^−1). […] The degradation rate of the novel compounds analysed by HPLC were compared with that of GSH. […] A GGT degradation less than 50% was considered resistance to GTT activity.

[5] = test system: Fibroblast cells; assay: UV rescue of UVA-irradiated fibroblast cells (MTT); format: cell-based; conditions: for cell viability versus untreated groups (in words): UV rescue; for % Cell Viability (with UV): UVA 1 h, then peptide 0.0325 mmolL^−1, 24 h
Procedure: (§1) Fibroblast cells were seeded into 96-well plates at a density of 10,000 cells per well determined by cell counting. Cells were allowed to settle and attach for 24 h before the addition of peptides. The supernatant in each well was discarded, and the attached cells were washed using serum-free DMEM twice. One group of cells was exposed to UVA under a UV lamp for 1 h. A second group of cells was not exposed to UV irradiation. The supernatant was removed from each well of both groups and replaced with peptide (100 μL, 0.0325 mmolL^−1), which was then dissolved in Fluorobite^TM DMEM. Each plate, including 2 wells of both groups was also incubated with serum-free DMEM (positive control) and 2% Triton-X (negative control) for 24 h. The supernatant in each well of both groups was then discarded and the cells washed using PBS. MTT (100 μL, 6 mmolL^−1) that was dissolved in HBSS was then added to each well and incubated for 2 h for MTT conversion into formazan. The supernatant was then discarded, and the cells were washed using PBS to remove any residual MTT and formazan that were not attached to the cellular mitochondria. Formazan was dissolved in DMSO (50 μL), and the absorbance was measured on a microplate reader at a wavelength of 570 nm.

[6] = UV rescue of UVA-irradiated fibroblast cells (MTT); format: cell-based; conditions: peptide 0.0325 mmolL^−1, 24 h, no UV, mean ± SD, n = 6, read-out: % Cell Viability (no UV)
Procedure: as §1

Compound: N[C@@H](CCC(=O)N[C@@H](CS)C(=O)NCC(=O)O)C(=O)O [Compound 1.61]
- GT/GPx Activity > 50% [1]: ✔ (✔: yes)
- GST Activity > 50% [2]: ✔ (✔: yes)
- IC50 [3]: > 3.25 mM
- % Degradation by GGT [4]: 100%
- cell viability versus untreated groups (in words) [5]: significantly higher cell viability than the untreated groups
- % Cell Viability (with UV) ([5]; mean ± SD, n = 6): 69.0 ± 0.6%
- % Cell Viability (no UV) ([5]; peptide 0.0325 mmolL^−1, 24 h, no UV, mean ± SD, n = 6): 74.3 ± 2.0%

Compound: N[C@@H](CCC(=O)N[C@H](CS)C(=O)NCC(=O)O)C(=O)O [Compound 1.62]
- activity with GPx and GR enzymes (in words) [1]: loss of activity
- GT/GPx Activity > 50% [1]: X (X: no)
- activity/efficacy with GST enzyme (in words) [2]: lost detoxification efficacy
- GST Activity > 50% [2]: X (X: no)
- IC50 ([3]; Homo sapiens): > 3.25 mM
- GGT degradation compared to GSH (in words) [4]: less than half the rate of GGT degradation
- % Degradation by GGT [4]: 82.3%
- viability at 24 h, 0.0325 mmolL^−1 [6]: 112 ± 5.5%
- cell viability versus untreated groups (in words) [5]: significantly higher cell viability than the untreated groups
- % Cell Viability (with UV) ([5]; mean ± SD, n = 6): 70.8 ± 5.7%

Compound: N[C@H](CCC(=O)N[C@@H](CS)C(=O)NCC(=O)O)C(=O)O [Compound 1.63]
- activity with GPx and GR enzymes (in words) [1]: retained activity
- GT/GPx Activity > 50% [1]: ✔ (✔: yes)
- activity/efficacy with GST enzyme (in words) [2]: lost detoxification efficacy
- GST Activity > 50% [2]: X (X: no)
- IC50 ([3]; Homo sapiens): > 3.25 mM
- GGT degradation compared to GSH (in words) [4]: less than half the rate of GGT degradation
- % Degradation by GGT [4]: 72.7%
- viability at 24 h, 0.0325 mmolL^−1 [6]: 137 ± 16.1%
- cell viability versus untreated groups (in words) [5]: significantly higher cell viability than the untreated groups
- % Cell Viability (with UV) ([5]; mean ± SD, n = 6): 101.1 ± 5.2%

Compound: N[C@H](CCC(=O)N[C@H](CS)C(=O)NCC(=O)O)C(=O)O [Compound 1.64]
- activity with GPx and GR enzymes (in words) [1]: loss of activity
- GT/GPx Activity > 50% [1]: X (X: no)
- activity/efficacy with GST enzyme (in words) [2]: retained the detoxification effectiveness
- GST Activity > 50% [2]: ✔ (✔: yes)
- IC50 ([3]; Homo sapiens): > 3.25 mM
- GGT degradation compared to GSH (in words) [4]: less than half the rate of GGT degradation
- % Degradation by GGT [4]: 60.2%
- viability at 24 h, 0.0325 mmolL^−1 [6]: 128 ± 7.9%
- cell viability versus untreated groups (in words) [5]: significantly higher cell viability than the untreated groups
- % Cell Viability (with UV) ([5]; mean ± SD, n = 6): 98.5 ± 7.1%

Compound: CN(CC(=O)O)C(=O)[C@H](CS)NC(=O)CC[C@H](N)C(=O)O [Compound 1.65]
- activity with GPx and GR enzymes (in words) [1]: retention of activity
- GT/GPx Activity > 50% [1]: ✔ (✔: yes)
- activity/efficacy with GST enzyme (in words) [2]: loss of activity
- GST Activity > 50% [2]: X (X: no)
- IC50 ([3]; Homo sapiens): 0.984 mM
- GGT degradation compared to GSH (in words) [4]: did not show a decrease in degradation
- % Degradation by GGT [4]: 122.2%
- viability at 24 h, 0.0325 mmolL^−1 [6]: 58.8%
- cell viability versus untreated groups (in words) [5]: significantly higher cell viability than the untreated groups
- % Cell Viability (with UV) ([5]; mean ± SD, n = 6): 69.3 ± 26.6%

Compound: CN[C@@H](CCC(=O)N[C@@H](CS)C(=O)NCC(=O)O)C(=O)O [Compound 1.71]
- activity with GPx and GR enzymes (in words) [1]: retention of activity
- GT/GPx Activity > 50% [1]: ✔ (✔: yes)
- activity/efficacy with GST enzyme (in words) [2]: loss of activity
- GST Activity > 50% [2]: X (X: no)
- % Degradation by GGT [4]: 11.7%
- viability at 24 h, 0.0325 mmolL^−1 [6]: 79.5 ± 10.2%
- cell viability versus untreated groups (in words) [5]: significantly higher cell viability than the untreated groups
- % Cell Viability (with UV) ([5]; mean ± SD, n = 6): 97.0 ± 5.5%
